28 molecules from patent US8349880B2, “Bicyclic compounds for the reduction of beta-amyloid production” (Bristol-Myers Squibb Company, priority 2009, dated 2013) can be followed below.

SMILES strings stand for the structures.

The first assay deals with Aβ1-42 production. Put plainly: Cellular assay for inhibition of Aβ1-42 production (H4 APP751 SWE clone 8.20). The assay is classed as cell-based. The conditions noted are these: 19 h, H4 APP751 SWE clone 8.20 cells, 19 h incubation; read-out: Activity Rating (Aβ42 cellular IC50, given as a number). A digest of the protocol: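 H4 cells stably expressing APP751 with the Swedish mutation (1.5×10^4 cells/well) incubated with compound for 19 h at 37° C in DMEM with 0.0125% BSA. Secreted Aβ42 measured overnight at 4° C by HTRF-type pairing of 565 (Aβ42 neoepitope) and 26D6 (N-terminal) antibodies. IC50 from curve fit.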
On to `COc1cc(Nc2nc3n(n2)CC=CCC3(C)C)ccc1-n1cnc(Cl)c1` [Example 9, (Z)—N-(4-(4-chloro-1H-imidazol-1-yl)-3-methoxyphenyl)-9,9-dimethyl-8,9-dihydro-5H-[1,2,4]triazolo[1,5-a]azepin-2-amine 2,2,2-trifluoroacetate], for which the half-inhibitory concentration (IC50) was 110 nM.
Turning to `Cc1ncn(-c2ccc(Nc3nc4n(n3)CCCC4c3ccc(F)cc3)cc2C#N)n1` (stereo not shown) [Example 11, 5-(8-(4-fluorophenyl)-5,6,7,8-tetrahydro-[1,2,4]triazolo[1,5-a]pyridin-2-ylamino)-2-(3-methyl-1H-1,2,4-triazol-1-yl)benzonitrile, 2,2,2-trifluoroacetate], the half-inhibitory concentration (IC50) was found to be 110 nM.
On the same count and under the same terms, the result for `COc1cc(Nc2nc3n(n2)CCCC3c2ccc(Cl)cc2Cl)ccc1-n1cnc(Cl)c1` (stereo not shown) [Example 12, N-(4-(4-chloro-1H-imidazol-1-yl)-3-methoxyphenyl)-8-(2,4-dichlorophenyl)-5,6,7,8-tetrahydro-[1,2,4]triazolo[1,5-a]pyridin-2-amine] reads 8 nM.
The same measure, in the same setting: the result for `COc1cc(Nc2nc3n(n2)CCCCC3c2ccc(F)cc2)ccc1-n1cnc(Cl)n1` (stereo not shown) [Example 33, N-(4-(3-chloro-1H-1,2,4-triazol-1-yl)-3-methoxyphenyl)-9-(4-fluorophenyl)-6,7,8,9-tetrahydro-5H-[1,2,4]triazolo[1,5-a]azepin-2-amine 2,2,2-trifluoroacetate] reads 9 nM.

The same assay, now with this note: 19 h, H4 APP751 SWE clone 8.20 cells, 19 h incubation; read-out: Activity Rating (based on Aβ42 cellular IC50 values).
`COc1cc(Nc2nc3n(n2)CCCC3c2ccc(F)cc2)ccc1-n1cnc(Cl)c1` (stereo not shown) [Example 10, N-(4-(4-chloro-1H-imidazol-1-yl)-3-methoxyphenyl)-8-(4-fluorophenyl)-5,6,7,8-tetrahydro-[1,2,4]triazolo[1,5-a]pyridin-2-amine 2,2,2-trifluoroacetate]: the IC50 lay in the range of 10 to 100 nM.
Still for that read-out and setting: under `Cc1ncnn1-c1ccc(Nc2nc3n(n2)CCCC3c2ccc(F)cc2)cc1F` (stereo not shown) [Example 13, N-(3-fluoro-4-(5-methyl-1H-1,2,4-triazol-1-yl)phenyl)-8-(4-fluorophenyl)-5,6,7,8-tetrahydro-[1,2,4]triazolo[1,5-a]pyridin-2-amine] stands 10 to 100 nM; under `COc1cc(Nc2nc3n(n2)CCCCC3c2ccc(F)cc2)ccc1-n1cnc(Cl)c1` (stereo not shown) [Example 16, N-(4-(4-Chloro-1H-imidazol-1-yl)-3-methoxyphenyl)-9-(4-fluorophenyl)-6,7,8,9-tetrahydro-5H-[1,2,4]triazolo[1,5-a]azepin-2-amine], less than 10 nM.
With `COc1cc(Nc2nc3n(n2)CCCCC3c2ccc(Cl)cc2Cl)ccc1-n1cnc(Cl)c1` (stereo not shown) [Example 19, N-(4-(4-chloro-1H-imidazol-1-yl)-3-methoxyphenyl)-9-(2,4-dichlorophenyl)-6,7,8,9-tetrahydro-5H-[1,2,4]triazolo azepin-2-amine 2,2,2-trifluoroacetate], the IC50 is less than 10 nM.
As to `COc1cc(Nc2nc3n(n2)CCCCC3c2ccc(F)c(F)c2)ccc1-n1cnc(Cl)c1` (stereo not shown) [Example 22, N-(4-(4-chloro-1H-imidazol-1-yl)-3-methoxyphenyl)-9-(3,4-difluorophenyl)-6,7,8,9-tetrahydro-5H-[1,2,4]triazolo[1,5-a]azepin-2-amine 2,2,2-trifluoroacetate], the half-maximal inhibitory concentration (IC50) was less than 10 nM.
On the same count and under the same terms, the result for `Cc1ncn(-c2ccc(Nc3nc4n(n3)CCCCC4c3ccc(F)cc3)cc2F)n1` (stereo not shown) [Example 25, N-(3-fluoro-4-(3-methyl-1H-1,2,4-triazol-1-yl)phenyl)-9-(4-fluorophenyl)-6,7,8,9-tetrahydro-5H-[1,2,4]triazolo[1,5-a]azepin-2-amine] reads 10 to 100 nM; that for `COc1cc(Nc2nc3n(n2)CCCCC3c2ccc(F)cc2)c(F)cc1-n1cnc(C)n1` (stereo not shown) [Example 28, N-(2-fluoro-5-methoxy-4-(3-methyl-1H-1,2,4-triazol-1-yl)phenyl)-9-(4-fluorophenyl)-6,7,8,9-tetrahydro-5H-[1,2,4]triazolo[1,5-a]azepin-2-amine 2,2,2-trifluoroacetate], 10 to 100 nM.
Regarding `COc1cc(Nc2nc3n(n2)CCCC[C@H]3c2ccc(F)cc2)c(F)cc1-n1cnc(C)n1` [Example 29, (S)—N-(2-fluoro-5-methoxy-4-(3-methyl-1H-1,2,4-triazol-1-yl)phenyl)-9-(4-fluorophenyl)-6,7,8,9-tetrahydro-5H-[1,2,4]triazolo[1,5-a]azepin-2-amine], the half-maximal inhibitory concentration (IC50) was 10 to 100 nM.
Still for that read-out and setting: the result for `COc1cc(Nc2nc3n(n2)CCCCC3c2ccc(OC(F)(F)F)cc2)ccc1-n1cnc(Cl)c1` (stereo not shown) [Example 31, N-(4-(4-chloro-1H-imidazol-1-yl)-3-methoxyphenyl)-9-(4-(trifluoromethoxy)phenyl)-6,7,8,9-tetrahydro-5H-[1,2,4]triazolo[1,5-a]azepin-2-amine 2,2,2-trifluoroacetate] reads less than 10 nM.
Take `COc1cc(Nc2nc3n(n2)CCCCC3c2ccc(Cl)cc2)ccc1-n1cnc(Cl)c1` (stereo not shown) [Example 32, N-(4-(4-chloro-1H-imidazol-1-yl)-3-methoxyphenyl)-9-(4-chlorophenyl)-6,7,8,9-tetrahydro-5H-[1,2,4]triazolo[1,5-a]azepin-2-amine 2,2,2-trifluoroacetate]: the 50% inhibitory concentration (IC50) is less than 10 nM.
As for `COc1cc(Nc2nc3n(n2)CCCCC3c2ccc(Cl)cc2)ccc1-c1cnn(C)c1` (stereo not shown) [Example 34, 9-(4-chlorophenyl)-N-(3-methoxy-4-(1-methyl-1H-pyrazol-4-yl)phenyl)-6,7,8,9-tetrahydro-5H-[1,2,4]triazolo[1,5-a]azepin-2-amine 2,2,2-trifluoroacetate], the concentration for half-maximal inhibition (IC50) was in the range of 10 to 100 nM.
As to `COc1cc(Nc2nc3n(n2)CCCCC3c2ccc(F)cc2F)ccc1-n1cnc(Cl)c1` (stereo not shown) [Example 35, N-(4-(4-chloro-1H-imidazol-1-yl)-3-methoxyphenyl)-9-(2,4-difluorophenyl)-6,7,8,9-tetrahydro-5H-[1,2,4]triazolo[1,5-a]azepin-2-amine 2,2,2-trifluoroacetate], the IC50 is less than 10 nM.
The same measure, in the same setting: under `COc1cc(Nc2nc3n(n2)CCCCC3c2cc(F)cc(F)c2)ccc1-n1cnc(Cl)c1` (stereo not shown) [Example 38, N-(4-(4-chloro-1H-imidazol-1-yl)-3-methoxyphenyl)-9-(3,5-difluorophenyl)-6,7,8,9-tetrahydro-5H-[1,2,4]triazolo[1,5-a]azepin-2-amine] stands less than 10 nM; under `COc1cc(Nc2nc3n(n2)CCCCC3c2ccc(Cl)nc2)ccc1-n1cnc(Cl)c1` (stereo not shown) [Example 41, N-(4-(4-chloro-1H-imidazol-1-yl)-3-methoxyphenyl)-9-(6-chloropyridin-3-yl)-6,7,8,9-tetrahydro-5H-[1,2,4]thiazolo[1,5-a]azepin-2-amine 2,2,2-trifluoroacetate], 10 to 100 nM.
The same measure, in the same setting: under `COc1cc(Nc2nc3n(n2)CCCCC3n2cc(Cl)cn2)ccc1-n1cnc(Cl)c1` (stereo not shown) [Example 42, N-(4-(4-chloro-1H-imidazol-1-yl)-3-methoxyphenyl)-9-(4-chloro-1H-pyrazol-1-yl)-6,7,8,9-tetrahydro-5H-[1,2,4]triazolo[1,5-a]azepin-2-amine 2,2,2-trifluoroacetate] stands 10 to 100 nM; under `COc1cc(Nc2nc3n(n2)CCCCC3c2ccc(F)cc2)ccc1-n1cnc(C(F)F)c1` (stereo not shown) [Example 43, N-(4-(4-(difluoromethyl)-1H-imidazol-1-yl)-3-methoxyphenyl)-9-(4-fluorophenyl)-6,7,8,9-tetrahydro-5H-[1,2,4]triazolo[1,5-a]azepin-2-amine 2,2,2-trifluoroacetate], 10 to 100 nM; under `COc1cc(Nc2nc3n(n2)CCCCC3c2cccc(F)c2)ccc1-n1cnc(Cl)c1` (stereo not shown) [Example 44, N-(4-(4-chloro-1H-imidazol-1-yl)-3-methoxyphenyl)-9-(3-fluorophenyl)-6,7,8,9-tetrahydro-5H-[1,2,4]triazolo[1,5-a]azepin-2-amine], less than 10 nM.
With `COc1cc(Nc2nc3n(n2)CCCCC3c2ccc(F)cc2)ccc1-c1cnnc(C)c1` (stereo not shown) [Example 47, 9-(4-fluorophenyl)-N-(3-methoxy-4-(6-methylpyridazin-4-yl)phenyl)-6,7,8,9-tetrahydro-5H-[1,2,4]triazolo[1,5-a]azepin-2-amine], the IC50 lay within 10 to 100 nM.
The same measure, in the same setting: the result for `Fc1ccc(C2CCCCn3nc(Nc4cc(F)c(-n5cnc(Cl)c5)c(F)c4)nc32)cc1` (stereo not shown) [Example 48, N-(4-(4-chloro-1H-imidazol-1-yl)-3,5-difluorophenyl)-9-(4-fluorophenyl)-6,7,8,9-tetrahydro-5H-[1,2,4]triazolo[1,5-a]azepin-2-amine] reads less than 10 nM; that for `COc1cc(Nc2nc3n(n2)CCCCC3c2ccc(F)cc2)cc(F)c1-n1cnc(Cl)c1` (stereo not shown) [Example 49, N-(4-(4-chloro-1H-imidazol-1-yl)-3-fluoro-5-methoxyphenyl)-9-(4-fluorophenyl)-6,7,8,9-tetrahydro-5H-[1,2,4]triazolo[1,5-a]azepin-2-amine], less than 10 nM.
For `COc1cc(Nc2nc3n(n2)CCCCC3c2cc(F)c(F)c(F)c2)ccc1-n1cnc(Cl)c1` (stereo not shown) [Example 50, N-(4-(4-chloro-1H-imidazol-1-yl)-3-methoxyphenyl)-9-(3,4,5-trifluorophenyl)-6,7,8,9-tetrahydro-5H-[1,2,4]triazolo[1,5-a]azepin-2-amine], the IC50 is less than 10 nM.
On the same count and under the same terms, the result for `COc1cc(Nc2nc3n(n2)CCCCC3c2cccc(Cl)c2)ccc1-n1cnc(Cl)c1` (stereo not shown) [Example 53, N-(4-(4-chloro-1H-imidazol-1-yl)-3-methoxyphenyl)-9-(3-chlorophenyl)-6,7,8,9-tetrahydro-5H-[1,2,4]triazolo azepin-2-amine] reads less than 10 nM; that for `COc1cc(Nc2nc3n(n2)CCCCC3c2ccccc2F)ccc1-n1cnc(Cl)c1` (stereo not shown) [Example 56, N-(4-(4-chloro-1H-imidazol-1-yl)-3-methoxyphenyl)-9-(2-fluorophenyl)-6,7,8,9-tetrahydro-5H-[1,2,4]triazolo[1,5-a]azepin-2-amine], less than 10 nM.
The same measure, in the same setting: the result for `COc1cc(Nc2nc3n(n2)CCCCC3c2ccc(C#N)cc2)ccc1-n1cnc(Cl)c1` (stereo not shown) [Example 57, 4-(2-(4-(4-chloro-1H-imidazol-1-yl)-3-methoxyphenylamino)-6,7,8,9-tetrahydro-5H-[1,2,4]triazolo[1,5-a]azepin-9-yl)benzonitrile] reads 10 to 100 nM.
